Laboratory results taken from patent publication US20150253328A1, “NANOMATERIAL-INDUCED CYTOTOXICITY DETECTION COMPOSITION AND KIT, AND NANOMATERIAL-INDUCED CYTOTOXICITY DETECTION METHOD” (KOREA UNIVERSITY RESEARCH AND BUSINESS FOUNDATION, priority 2011, published 2015).

Columns and labels:
Format in all cases: cell-based, human
Egr-1 and p-ERK proteins [1] = experiment: ROS inhibitor assay (Western blot), HEKn; settings: 10 uM/ml NAC 2 hours before ZnO, 1 hour after ZnO, FIG. 13C
Experimental: (§1) A Western blot assay was performed in the same manner as described in Example 2, except for the following differences. At 2 hours before treatment with ZnO, cultured cells were treated with 10 uM/ml of the antioxidant N-acetyl cystein (NAC), and after 2 hours, the cells were treated with 2 ml of fresh DMEM medium free of FBS and P/S. After 1 hour from the treatment with ZnO, the medium was removed, and the cells were treated with 1×PBS, scraped with a scrapper, and then transferred to a 1.5 ml tube. […] Thus, it can be seen that the expressions of the marker proteins Egr-1 and p-ERK are increased by ROS (B: HaCaT, C: HEKn). Herein, the data points indicate the β-actin-normalized mean and ERK-normalized mean of three independent experiments compared using two-way Anova (***P<0.001).

Egr-1 and p-ERK proteins [2] = experiment: ROS inhibitor assay (Western blot), HaCaT; settings: 10 uM/ml NAC 2 hours before ZnO, 1 hour after ZnO, FIG. 13B
Experimental: as §1

Egr-1 protein = experiment: MAPK inhibitor assay (Western blot, ZnO plus MAPK inhibitor); settings: cells pre-treated with inhibitor 30 minutes before ZnO; 2 hours after ZnO
Experimental: A Western blot assay was performed in the same manner as described in Example 2, except for the following differences. At 30 minutes before treatment with ZnO, cells were treated with an MAPK (mitogen-activated proteinkinase) inhibitor (U0126: ERK inhibitor, SB600125: p38 inhibitor, SP239063: JNK inhibitor-sigma product), and after 30 minutes, the cells were treated with 2 ml of fresh DMEM medium free of FBS and P/S. After 2 hours from treatment with ZnO, the medium was removed, and the cells were treated with 1×PBS, scraped with a scrapper, and then transferred to a 1.5 ml tube.
A Western blot assay was performed in the same manner as described in Example 2, except for the following differences. At 30 minutes before treatment with ZnO, cells were treated with an MAPK (mitogen-activated proteinkinase) inhibitor (U0126: ERK inhibitor, SB600125: p38 inhibitor, SP239063: JNK inhibitor-sigma product), and after 30 minutes, the cells were treated with 2 ml of fresh DMEM medium free of FBS and P/S. After 2 hours from the treatment with ZnO, the medium was removed, and the cells were treated with 1×PBS, scraped with a scrapper, and then transferred to a 1.5 ml tube.

CC(=O)N[C@@H](CS)C(=O)O [NAC, N-acetyl cystein]
expression bands of Egr-1 protein (Egr-1 and p-ERK proteins [1]): significantly decreased
expression bands of p-ERK protein (Egr-1 and p-ERK proteins [1]): significantly decreased
expression bands of Egr-1 protein (Egr-1 and p-ERK proteins [2]): significantly decreased
expression bands of p-ERK protein (Egr-1 and p-ERK proteins [2]): significantly decreased

N#CC(=C(/N)Sc1ccccc1N)/C(C#N)=C(\N)Sc1ccccc1N [U0126]
expression of the Egr-1 protein (Egr-1 protein): significantly decreased
